Reference: patent US7396837B2, “Antitumoral analogs of lamellarins” (Pharma Mar, S.A.U., priority 2002, dated 2008)

How the values were obtained:
Type in all cases: cell-based
IGROV-ET = test: SRB colorimetric cell growth inhibition assay, IGROV-ET (ET-743 resistant); details: Homo sapiens, IGROV-ET; for GI50: GI=growth inhibition, read-out: GI50 IGROV-ET; for CC50: cell killing (cytotoxic effect), read-out: LC50 IGROV-ET; for IC (TGI): total growth inhibition (cytostatic effect), read-out: TGI IGROV-ET
Method in brief: (§1)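 Triplicate-well SRB colorimetry following continuous sample exposure of human tumour cells; reported parameters are GI, TGI for cytostatic effect, and LC for cytotoxic effect.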

DU-145 = test: SRB colorimetric cell growth inhibition assay, DU-145; details: Homo sapiens, DU-145, DU-145; for GI50: GI=growth inhibition, read-out: GI50 DU-145; for CC50: cell killing (cytotoxic effect), read-out: LC50 DU-145; for IC (TGI): total growth inhibition (cytostatic effect), read-out: TGI DU-145
Method in brief: as §1

HT-29 = test: SRB colorimetric cell growth inhibition assay, HT-29; details: Homo sapiens, HT-29, HT-29; for GI50: GI=growth inhibition, read-out: GI50 HT-29; for CC50: cell killing (cytotoxic effect), read-out: LC50 HT-29; for IC (TGI): total growth inhibition (cytostatic effect), read-out: TGI HT-29
Method in brief: as §1

LoVo = test: SRB colorimetric cell growth inhibition assay, LoVo; details: Homo sapiens, LoVo; for GI50: GI=growth inhibition, read-out: GI50 LOVO; for CC50: cell killing (cytotoxic effect), read-out: LC50 LOVO; for IC (TGI): total growth inhibition (cytostatic effect), read-out: TGI LOVO
Method in brief: as §1

LoVo-Dox = test: SRB colorimetric cell growth inhibition assay, LoVo-Dox (MDR); details: Homo sapiens, LOVO-DOX; for GI50: GI=growth inhibition, read-out: GI50 LOVO-DOX; for CC50: cell killing (cytotoxic effect), read-out: LC50 LOVO-DOX; for IC (TGI): total growth inhibition (cytostatic effect), read-out: TGI LOVO-DOX
Method in brief: as §1

SK-BR-3 = test: SRB colorimetric cell growth inhibition assay, SK-BR-3; details: Homo sapiens, SK-BR-3, SK-BR-3; for GI50: GI=growth inhibition, read-out: GI50 SK-BR-3; for CC50: cell killing (cytotoxic effect), read-out: LC50 SK-BR-3; for IC (TGI): total growth inhibition (cytostatic effect), read-out: TGI SK-BR-3
Method in brief: as §1

LNCaP = test: SRB colorimetric cell growth inhibition assay, LNCaP; details: Homo sapiens, LNCaP, LN-caP; for GI50: GI=growth inhibition, read-out: GI50 LN-caP; for CC50: cell killing (cytotoxic effect), read-out: LC50 LN-caP; for IC (TGI): total growth inhibition (cytostatic effect), read-out: TGI LN-caP
Method in brief: as §1

K-562 = test: SRB colorimetric cell growth inhibition assay, K-562; details: Homo sapiens, K562, K-562; for GI50: GI=growth inhibition, read-out: GI50 K-562; for CC50: cell killing (cytotoxic effect), read-out: LC50 K-562; for IC (TGI): total growth inhibition (cytostatic effect), read-out: TGI K-562
Method in brief: as §1

HeLa-APL = test: SRB colorimetric cell growth inhibition assay, HeLa-APL (aplidine resistant); details: Homo sapiens, HELA-APL; for GI50: GI=growth inhibition, read-out: GI50 HELA-APL; for CC50: cell killing (cytotoxic effect), read-out: LC50 HELA-APL; for IC (TGI): total growth inhibition (cytostatic effect), read-out: TGI HELA-APL
Method in brief: as §1

A-549 = test: SRB colorimetric cell growth inhibition assay, A-549; details: Homo sapiens, A549, A-549; for GI50: GI=growth inhibition, read-out: GI50 A-549; for CC50: cell killing (cytotoxic effect), read-out: LC50 A-549; for IC (TGI): total growth inhibition (cytostatic effect), read-out: TGI A-549
Method in brief: as §1

PANC-1 = test: SRB colorimetric cell growth inhibition assay, PANC-1; details: Homo sapiens, PANC-1, PANC-1; for GI50: GI=growth inhibition, read-out: GI50 PANC-1; for CC50: cell killing (cytotoxic effect), read-out: LC50 PANC-1; for IC (TGI): total growth inhibition (cytostatic effect), read-out: TGI PANC-1
Method in brief: as §1

IGROV = test: SRB colorimetric cell growth inhibition assay, IGROV; details: Homo sapiens, IGROV; for GI50: GI=growth inhibition, read-out: GI50 IGROV; for CC50: cell killing (cytotoxic effect), read-out: LC50 IGROV; for IC (TGI): total growth inhibition (cytostatic effect), read-out: TGI IGROV
Method in brief: as §1

HeLa = test: SRB colorimetric cell growth inhibition assay, HeLa; details: Homo sapiens, HeLa; for GI50: GI=growth inhibition, read-out: GI50 HELA; for CC50: cell killing (cytotoxic effect), read-out: LC50 HELA; for IC (TGI): total growth inhibition (cytostatic effect), read-out: TGI HELA
Method in brief: as §1

SK-MEL-28 = test: SRB colorimetric cell growth inhibition assay, SK-MEL-28; details: Homo sapiens, SK-MEL-28, MEL-28; for GI50: GI=growth inhibition, read-out: GI50 MEL-28; for CC50: cell killing (cytotoxic effect), read-out: LC50 MEL-28; for IC (TGI): total growth inhibition (cytostatic effect), read-out: TGI MEL-28
Method in brief: as §1

For COc1cc2c(cc1O)CCn1c-2c(Br)c2c3cc(OC)c(O)cc3oc(=O)c21 [Compound 188], which GI50 (IGROV-ET) is on record?
Its GI50 is 2.51 µM.

What about the CC50 (IGROV-ET) of the same molecule?
Its CC50 is 21.8 µM.

What about the IC (TGI) (IGROV-ET) of the same molecule?
Its IC (TGI) is 13.4 µM.

And the GI50 (DU-145)?
The GI50 was 3.19 µM.

And the CC50 (DU-145)?
Its CC50 is 21.8 µM.

And the IC (TGI) (DU-145)?
Its IC (TGI) is 21.8 µM.

What about the GI50 (HT-29) of the same molecule?
The GI50 was 21.8 µM.

And the CC50 (HT-29)?
The CC50 was 21.8 µM.

What about the IC (TGI) (HT-29) of the same molecule?
The IC (TGI) was 21.8 µM.

What about the GI50 (LoVo) of the same molecule?
The GI50 was 4.5 µM.

What about the CC50 (LoVo) of the same molecule?
The CC50 was 21.8 µM.

What about the IC (TGI) (LoVo) of the same molecule?
Its IC (TGI) is 21.8 µM.

And the GI50 (LoVo-Dox)?
The GI50 was 1.3 µM.

And the CC50 (LoVo-Dox)?
The CC50 was 21.8 µM.

And the IC (TGI) (LoVo-Dox)?
The IC (TGI) was 21.8 µM.

And the GI50 (SK-BR-3)?
Its GI50 is 3.6 µM.

And the CC50 (SK-BR-3)?
The CC50 was 21.8 µM.

What about the IC (TGI) (SK-BR-3) of the same molecule?
Its IC (TGI) is 11.5 µM.

And the GI50 (LNCaP)?
The GI50 was 3.3 µM.

What about the CC50 (LNCaP) of the same molecule?
Its CC50 is 21.8 µM.

What about the IC (TGI) (LNCaP) of the same molecule?
Its IC (TGI) is 21.8 µM.

And the GI50 (K-562)?
Its GI50 is 0.908 µM.

What about the CC50 (K-562) of the same molecule?
Its CC50 is 21.8 µM.

And the IC (TGI) (K-562)?
Its IC (TGI) is 4.02 µM.

What about the GI50 (HeLa-APL) of the same molecule?
The GI50 was 0.984 µM.

And the CC50 (HeLa-APL)?
The CC50 was 15.8 µM.

And the IC (TGI) (HeLa-APL)?
The IC (TGI) was 31.6 µM.

And the GI50 (A-549)?
The GI50 was 10.8 µM.

What about the CC50 (A-549) of the same molecule?
Its CC50 is 21.8 µM.

And the IC (TGI) (A-549)?
The IC (TGI) was 21.8 µM.

And the GI50 (PANC-1)?
Its GI50 is 5.56 µM.

And the CC50 (PANC-1)?
Its CC50 is 21.8 µM.

What about the IC (TGI) (PANC-1) of the same molecule?
Its IC (TGI) is 21.8 µM.

What about the GI50 (IGROV) of the same molecule?
Its GI50 is 5.37 µM.

And the CC50 (IGROV)?
The CC50 was 21.8 µM.

And the IC (TGI) (IGROV)?
Its IC (TGI) is 20.2 µM.

And the GI50 (HeLa)?
The GI50 was 1.05 µM.

What about the CC50 (HeLa) of the same molecule?
The CC50 was 21.8 µM.

What about the IC (TGI) (HeLa) of the same molecule?
The IC (TGI) was 3.69 µM.

And the GI50 (SK-MEL-28)?
The GI50 was 1.14 µM.

What about the CC50 (SK-MEL-28) of the same molecule?
The CC50 was 21.8 µM.

What about the IC (TGI) (SK-MEL-28) of the same molecule?
The IC (TGI) was 21.8 µM.

For COc1cc(-c2c3c4cc(OC)c(O)cc4oc(=O)c3n3ccc4c(N)cccc4c23)ccc1O [Compound 182], which GI50 (IGROV-ET) is on record?
The GI50 was 3.16 µM.

What about the CC50 (IGROV-ET) of the same molecule?
The CC50 was 21.3 µM.

And the IC (TGI) (IGROV-ET)?
Its IC (TGI) is 21.3 µM.

What about the GI50 (DU-145) of the same molecule?
The GI50 was 1.08 µM.

What about the CC50 (DU-145) of the same molecule?
The CC50 was 21.3 µM.

What about the IC (TGI) (DU-145) of the same molecule?
The IC (TGI) was 21.3 µM.

And the GI50 (HT-29)?
The GI50 was 21.3 µM.

What about the CC50 (HT-29) of the same molecule?
Its CC50 is 21.3 µM.

What about the IC (TGI) (HT-29) of the same molecule?
The IC (TGI) was 21.3 µM.

And the GI50 (LoVo)?
Its GI50 is 21.3 µM.

What about the CC50 (LoVo) of the same molecule?
The CC50 was 21.3 µM.

What about the IC (TGI) (LoVo) of the same molecule?
Its IC (TGI) is 21.3 µM.

What about the GI50 (LoVo-Dox) of the same molecule?
Its GI50 is 1.21 µM.

And the CC50 (LoVo-Dox)?
Its CC50 is 21.3 µM.

What about the IC (TGI) (LoVo-Dox) of the same molecule?
Its IC (TGI) is 21.3 µM.

And the GI50 (SK-BR-3)?
Its GI50 is 0.365 µM.

What about the CC50 (SK-BR-3) of the same molecule?
Its CC50 is 12 µM.

And the IC (TGI) (SK-BR-3)?
The IC (TGI) was 1.25 µM.

And the GI50 (LNCaP)?
Its GI50 is 1.75 µM.

And the CC50 (LNCaP)?
Its CC50 is 21.3 µM.

And the IC (TGI) (LNCaP)?
Its IC (TGI) is 21.3 µM.

And the GI50 (K-562)?
The GI50 was 0.316 µM.

And the CC50 (K-562)?
Its CC50 is 21.3 µM.

What about the IC (TGI) (K-562) of the same molecule?
The IC (TGI) was 4.85 µM.

What about the GI50 (HeLa-APL) of the same molecule?
Its GI50 is 4.46 µM.

What about the CC50 (HeLa-APL) of the same molecule?
The CC50 was 21.3 µM.

And the IC (TGI) (HeLa-APL)?
The IC (TGI) was 21.3 µM.

And the GI50 (A-549)?
The GI50 was 9.58 µM.

And the CC50 (A-549)?
The CC50 was 21.3 µM.

And the IC (TGI) (A-549)?
Its IC (TGI) is 21.3 µM.

And the GI50 (PANC-1)?
The GI50 was 4.85 µM.

And the CC50 (PANC-1)?
The CC50 was 21.3 µM.

What about the IC (TGI) (PANC-1) of the same molecule?
The IC (TGI) was 21.3 µM.

And the GI50 (IGROV)?
The GI50 was 2.86 µM.

What about the CC50 (IGROV) of the same molecule?
Its CC50 is 21.3 µM.

And the IC (TGI) (IGROV)?
The IC (TGI) was 21.3 µM.

What about the GI50 (HeLa) of the same molecule?
The GI50 was 8.52 µM.

What about the CC50 (HeLa) of the same molecule?
The CC50 was 21.3 µM.

And the IC (TGI) (HeLa)?
Its IC (TGI) is 21.3 µM.

And the GI50 (SK-MEL-28)?
The GI50 was 1.08 µM.

What about the CC50 (SK-MEL-28) of the same molecule?
The CC50 was 21.3 µM.

And the IC (TGI) (SK-MEL-28)?
The IC (TGI) was 21.3 µM.
